Tests used:
[1] = biological target: T1, Human immunodeficiency virus type 1 protease (Human immunodeficiency virus 1, UniProt Q72874); assay: Inhibitory activity was evaluated against recombinant HIV-1 protease using spectrofluorimetric assay
CCRF-CEM [2] = assay: Antiviral activity was evaluated against HIV-IIIB strain of HIV-1 in CEM cell culture assay; assay type: functional, cell-based; conditions: Homo sapiens
CCRF-CEM [3] = assay: Toxic dose was evaluated against HIV-IIIB strain of HIV-1 in CEM cell culture assay; conditions: Homo sapiens, CEM cells; read-out: TD50 (the source's name)
[4] = Half-life was evaluated in rats; assay type: ADME, organism-based; conditions: rat, in vivo
[5] = Maximum concentration was evaluated in rats; assay type: ADME, organism-based; conditions: rat, in vivo
[6] = Bioavailability in rat; assay type: ADME, organism-based; conditions: in vivo
[7] = biological target: T1, Human immunodeficiency virus type 1 protease; assay: Inhibitory activity against HIV-1 protease in spectrofluorimetric assay

Row | EC50 (CCRF-CEM [2]) [nM] | Structure (SMILES) | CC50 (CCRF-CEM [3]) [nM] | IC50 [7] [nM] | other results
1 | 18 | COc1ccc(S(=O)(=O)N(CC(C)C)C[C@@H](O)[C@H](Cc2ccccc2)NC(=O)c2cccc(N)c2C)cc1 | > 10000 | – | half-life [4]: 1 h; Cmax [5]: 1800 ng/mL; bioavailability [6]: 54%
2 | 82 | COc1ccc(S(=O)(=O)N(CC(C)C)C[C@@H](O)[C@H](Cc2ccccc2)NC(=O)c2cc(N)ccc2C)cc1 | > 10000 | – | –
3 | – | COc1ccc(S(=O)(=O)N(CC(C)C)C[C@@H](O)[C@H](Cc2ccccc2)NC(=O)c2ccccc2C(C)C)cc1 | – | 49 | –
4 | – | COc1ccc(S(=O)(=O)N(CC(C)C)C[C@@H](O)[C@H](Cc2ccccc2)NC(=O)c2ccccc2O)cc1 | – | 900 | –
5 | 7 | COc1ccc(S(=O)(=O)N(CC(C)C)C[C@@H](O)[C@H](Cc2ccccc2)NC(=O)c2cccc(O)c2C)cc1 | > 10000 | – | half-life [4]: 1 h; Cmax [5]: 270 ng/mL; bioavailability [6]: 12%
6 | – | COc1ccc(S(=O)(=O)N(CC(C)C)C[C@@H](O)[C@H](Cc2ccccc2)NC(=O)c2cc(O)ccc2C)cc1 | > 10000 | – | IC50 [1]: 40 nM
7 | 18 | COc1ccc(S(=O)(=O)N(CC(C)C)C[C@@H](O)[C@H](Cc2ccccc2)NC(=O)c2ccc(N)cc2C)cc1 | – | – | –
8 | – | COc1ccc(S(=O)(=O)N(CC(C)C)C[C@@H](O)[C@H](Cc2ccccc2)NC(=O)c2cccc(C)c2)cc1 | – | 27 | –
9 | 200 | COc1ccc(S(=O)(=O)N(CC(C)C)C[C@@H](O)[C@H](Cc2ccccc2)NC(=O)c2ccccc2C)cc1 | – | – | –
10 | – | COc1ccc(S(=O)(=O)N(CC(C)C)C[C@@H](O)[C@H](Cc2ccccc2)NC(=O)c2ccc(C)cc2)cc1 | – | 15 | –
11 | – | COc1ccc(S(=O)(=O)N(CC(C)C)C[C@@H](O)[C@H](Cc2ccccc2)NC(=O)c2ccccc2C(F)(F)F)cc1 | – | 37 | –

Row | Structure (SMILES) | EC50 (CCRF-CEM [2]) [nM] | CC50 (CCRF-CEM [3]) [nM] | IC50 [7] [nM] | other results
12 | COc1ccc(S(=O)(=O)N(CC(C)C)C[C@@H](O)[C@H](Cc2ccccc2)NC(=O)c2ccc(O)cc2C)cc1 | 9 | > 10000 | – | IC50 [1]: 5 nM
